For 14 compounds, IC50 results are on record in patent publication US7713994B2 (Wyeth LLC, priority 2005, dated 2010).

One may read the IC50 as the concentration that gives 50% inhibition.

The assay concerns the target T1, cyclin D1/cdk 4 enzyme (Homo sapiens, UniProt P11802).
T1 construct: made in house; host or cells: Sf9 insect cells, recombinant baculovirus
Briefly: CDK4 ELISA kinase assay (phospho-Rb ser 795 detection). Type of assay: biochemical. As to conditions: In Vitro Enzyme Assay, cyclin D1/cdk 4, read-out: CDK4 IC50. As to the method:
• 1. High-binding ELISA microtiter plates (Costar) were coated with 40 μl of the kinase substrate (GST fusion of C-terminal fragment of the retinoblastoma susceptibility gene product) diluted to 10 μg/ml in tris-buffered saline (TBS), overnight at 4° C. • 2. Non-specific binding sites were blocked for 1 hour at 4° C. with Superblock in TBS (Pierce), and the plates rinsed with water. • 3. For the screen, 1.5 μl of test compound (200 μg/ml stock in 20% DMSO/20 mM HEPES, pH 7.5) was added to each well. Final dose of the test compound in the assay was 10 ug/ml. […] The kinase reaction (30 μl) was dispensed into each well. Reactions contained 200 μM ATP, 0.5 mg/ml bovine serum albumin (BSA; Sigma), and 0.5 μl partially purified cyclin D1/cdk 4 enzyme*. The enzyme complex is expressed in insect cells (Sf9) infected with recombinant baculovirus and partially purified using ammonium sulfate fractionation. Reaction volumes were adjusted to 30 μl with kinase assay buffer (50 mM HEPES, pH 7.5, 10 mM MgCl2, 5% glycerol, 10 mM 2-mercaptoethanol). • *: For CDK2 assay, 1.0 μl cyclin E/CDK2 enzyme (diluted 1:1000 in kinase assay buffer) was used. The enzyme is isolated from insect cells (Sf9) infected with recombinant baculovirus and partially purified using ammonium sulfate fractionation. For CDK1 assay, 0.08 μl cyclin B/CDK1 enzyme [New England BioLabs; the enzyme is isolated from insect cells (Sf9) infected with recombinant baculovirus carrying human cdc 2 and human cyclin B] was used.
[…] • 5. Plates were incubated at 30° C. for 1 hour. • 6. The reaction mixture was removed by aspiration and replaced with 250 μl TBS containing 0.1% Tween-20 and 5% nonfat dry milk (blocking buffer). The plates were incubated at 4° C. for 1 hour. • 7. The blocking buffer was removed and replaced with 50 μl of the primary antibody [anti-phospho-Rb ser 795 (New England BioLabs) diluted 1:1000 in blocking buffer]. Incubation was at 4° C. for 16-20 hours. • 8. The wells were rinsed 3 times with 250 μl of TBS containing 0.1% Tween-20 followed by the addition of 50 μl of secondary antibody [anti-rabbit IgG conjugated to horseradish peroxidase (Amersham Life Science) diluted 1:1000 in blocking buffer]. • 9. After a 1 hour incubation at room temperature, the wells were rinsed 3 times with 250 μl of TBS/0.1% Tween 20. • 10. TMB (3,3′,5,5′-tetramethylbenzidine dihydrochloride) substrate solution (100 μl; Pierce) was added to each well and the color development reaction allowed to proceed 5-10 minutes at room temperature with shaking. The reaction was stopped by the addition of 2N sulfuric acid (100 μl) and the absorbance values read at 450 nm in a microplate reader (Molecular Devices). Analysis of Results: • 1. The percentage of the absorbance value in wells containing the test compound relative to control wells (no test agent) was determined. • 2. IC50 values of selected compounds were determined from inhibition curves, after subtracting background values (no substrate).
On the technique in general: ELISA stands for enzyme-linked immunosorbent assay.

T1 sequence (P11802 whole entry, species assumed): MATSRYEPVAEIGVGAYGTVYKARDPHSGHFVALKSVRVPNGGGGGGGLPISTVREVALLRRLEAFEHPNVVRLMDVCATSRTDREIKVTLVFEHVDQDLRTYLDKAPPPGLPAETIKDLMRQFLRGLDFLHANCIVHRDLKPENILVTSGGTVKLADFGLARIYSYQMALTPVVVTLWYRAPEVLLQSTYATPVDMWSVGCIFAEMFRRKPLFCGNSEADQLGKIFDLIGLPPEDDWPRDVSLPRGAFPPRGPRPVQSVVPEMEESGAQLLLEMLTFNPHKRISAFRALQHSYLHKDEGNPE
T1 sequence (P24385 whole entry partner, species assumed): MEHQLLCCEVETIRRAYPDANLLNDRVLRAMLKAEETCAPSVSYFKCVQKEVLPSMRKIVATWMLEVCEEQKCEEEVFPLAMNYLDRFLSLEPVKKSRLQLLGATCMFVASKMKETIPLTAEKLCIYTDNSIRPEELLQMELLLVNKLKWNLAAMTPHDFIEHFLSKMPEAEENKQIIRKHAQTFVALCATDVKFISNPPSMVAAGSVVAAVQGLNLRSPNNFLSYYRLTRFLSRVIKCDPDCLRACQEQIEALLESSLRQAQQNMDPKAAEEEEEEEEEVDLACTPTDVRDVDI

As for `CN1CCN(c2ccc(NC=C3C(=O)NC(=O)c4ccc(C=Cc5ccc6ccccc6c5)cc43)cc2)CC1` [Example 674, 4-{[4-(4-Methyl-piperazin-1-yl)-phenylamino]-methylene}-6-(2-naphthalen-2-yl-vinyl)-4H-isoquinoline-1,3-dione], the 50% inhibitory concentration (IC50) stood at 11.7 µM.
Take `N#CCN1CCN(c2ccc(N/C=C3\C(=O)NC(=O)c4ccccc43)cc2)CC1` [Example 596, (4-{4-[(1,3-Dioxo-2,3-dihydro-1H-isoquinolin-4-ylidenemethyl)-amino]-phenyl}-piperazin-1-yl)-acetonitrile]: the IC50 stood at 27.7 µM.
Regarding `COc1ccc(-c2ccc3c(c2)C(=CNCc2ccc(O)c(O)c2)C(=O)NC3=O)c(OC)c1` [Example 814, 4-[(3,4-Dihydroxy-benzylamino)-methylene]-6-(2,4-dimethoxy-phenyl)-4H-isoquinoline-1,3-dione], the IC50 was determined as 2.75 µM.
In the case of `O=C1NC(=O)c2ccc(C=CCN3CCNCC3)cc2C1=CNCc1ccc(O)c(O)c1` [Example 666, 4-[(3,4-Dihydroxy-benzylamino)-methylene]-6-(3-piperazin-1-yl-propenyl)-4H-isoquinoline-1,3-dione] it was 2.5 µM; in that of `O=C1NC(=O)c2ccccc2C1=CNc1ccc(O)cc1O` [Example 568, 4-[(2,4-Dihydroxy-phenylamino)-methylene]-4H-isoquinoline-1,3-dione], 16.9 µM.
As for `CC(=O)c1ccc(-c2ccc3c(c2)C(=CNc2ccc(CC#N)cc2)C(=O)NC3=O)cc1` [Example 710, (4-{[6-(4-Acetyl-phenyl)-1,3-dioxo-2,3-dihydro-1H-isoquinolin-4-ylidenemethyl]-amino}-phenyl)-acetonitrile], the concentration for half-maximal inhibition (IC50) amounted to 28 µM.
Turning to `O=C(O)C(=O)Nc1ccc(NC=C2C(=O)NC(=O)c3ccccc32)cc1` [Example 546, N-{4-[(1,3-Dioxo-2,3-dihydro-1H-isoquinolin-4-ylidenemethyl)-amino]-phenyl}-oxalamic acid], the half-maximal inhibitory concentration (IC50) amounted to 20 µM.
To `CN1CCN(c2ccc(NC=C3C(=O)NC(=O)c4ccc(-c5cc6ccccc6s5)cc43)cc2)CC1` [Example 670, 6-Benzo[b]thiophen-2-yl-4-{[4-(4-methyl-piperazin-1-yl)-phenylamino]-methylene}-4H-isoquinoline-1,3-dione] belongs 39.8 µM; to `Cc1cc(NS(=O)(=O)c2ccc(NC=C3C(=O)NC(=O)c4ccccc43)cc2)no1` [Example 556, 4-[(1,3-Dioxo-2,3-dihydro-1H-isoquinolin-4-ylidenemethyl)-amino]-N-(5-methyl-isoxazol-3-yl)-benzenesulfonamide], 48.4 µM; to `CC(=O)c1cccc(-c2ccc3c(c2)C(=CNCc2ccc(S(N)(=O)=O)cc2)C(=O)NC3=O)c1` [Example 747, 4-({[6-(3-Acetyl-phenyl)-1,3-dioxo-2,3-dihydro-1H-isoquinolin-4-ylidenemethyl]-amino}-methyl)-benzenesulfonamide], 14.5 µM.
With `O=C1NC(=O)c2ccccc2C1=CNc1cccc2c(O)cccc12` [Example 619, 4-[(5-Hydroxy-naphthalen-1-ylamino)-methylene]-4H-isoquinoline-1,3-dione], the IC50 amounted to 14.3 µM.
In the case of `O=C1NC(=O)c2ccccc2C1=CNc1ccc(O)cc1C(=O)O` [Example 562, 2-[(1,3-Dioxo-2,3-dihydro-1H-isoquinolin-4-ylidenemethyl)-amino]-5-hydroxy-benzoic acid] it was 15.9 µM.
For `CS(=O)(=O)Nc1ccc(CNC=C2C(=O)NC(=O)c3ccccc32)cc1` [Example 589], the IC50 came out at 36.4 µM.
In the case of `NS(=O)(=O)c1ccc(CNC=C2C(=O)NC(=O)c3ccc(-c4ccc(C(=O)O)cc4)cc32)cc1` [Example 741, 4-{1,3-Dioxo-4-[(4-sulfamoyl-benzylamino)-methylene]-1,2,3,4-tetrahydro-isoquinolin-6-yl}-benzoic acid] it was 2.3 µM.
